Read-outs that look alike come from different tables or passages of the source.
What was measured:
[1] = target: T1, Rat Aldose Reductase (AR) (Rattus norvegicus, UniProt P07943); assay: In vitro inhibition of aldose reductase (rat lens supernatant fraction); type: biochemical; conditions: for IC50: ± SEM, n = 3-4, rat lens supernatant, pH 7.5, room temperature; for difference in activity in vitro between A(+) and A(-): Rat AR and Rat L-HDH, conclusion in words
T1 construct: rat lens supernatant fraction; from tissue; host or cells: rat lens, supernatant fraction
From the text: (§1) The in vitro inhibiting activity of racemic 2,7-difluoro-4-methoxyspiro[9H-fluorene-9,4'-imidazolidine]-2',5'-dione, prepared in accordance with U.S. Pat. No. 4,864,028 (hereafter referred to as "A(±)") was compared to that of the R(+) and S(-) enantiomers thereof, prepared in accordance with U.S. Pat. No. 5,151,544 (referred to hereafter as "A(+)" and "A(-)", respectively), with respect to aldose reductase and L-hexonate dehydrogenase.
(§2) The test methods used for measuring in vitro inhibition activities of these compounds toward aldose reductase and L-hexonate dehydrogenase are known. The method utilized for measuring the inhibition of aldose reductase is described in B. W. Griffin and L. G. McNatt, "Characterization of the Reduction of 3-Acetylpyridine Adenine Dinucleotide Phosphate by Benzyl Alcohol Catalyzed by Aldose Reductase", Arch. Biochem, Biophys. 246:75-81 (1986). The method utilized for measuring the inhibition of L-hexonate dehydrogenase is described in M. T. DuPriest, B. W. Griffin, D. Kuzmich, and L. G. McNatt "Spiro[fluoreneisothiazolidin]one Dioxides: New Aldose Reductase and L-Hexonate Dehydrogenase Inhibitors", J. Med Chem. 34:3229-3234 (1991). Both methods are based on detection of the rate of increase of fluorescence of NADPH (reduced form of nicotinamide adenine dinucleotide phosphate) or an analog, formed as a product of the enzymatic reaction, i.e., oxidation of an appropriate alcohol substrate by the respective oxidized pyridine species. In the assay for aldose reductase, the reaction mixture contained 50 mmol/L potassium phosphate buffer (pH 7.5), 12 mmol/L benzyl alcohol, 12 μmol/L oxidized 3-acetylpyridine adenine dinucleotide phosphate, and rat lens supernatant fraction (50-100 μg total protein) in a total volume of 1.0 mL. The assay for L-hexonate dehydrogenase consisted of the following components: 50 mmol/L potassium phosphate buffer (pH 7.5), 20 mmol/L L-gulonate, 25 μmol/L NADP+, and rat kidney supernatant fraction (50-100 µg total protein) in a total volume of 1.0 mL. The enzyme-dependent rate of formation of the reduced pyridine nucleotide was monitored with a fluorescence spectrophotometer set at excitation/emission wavelengths of 365/480 nm for the NADP+analog and 365/465 nm for NADP+; slit widths were routinely set at 10 nm. Reactions were carried out at room temperature; blank rates with one component of the reaction omitted were typically less than 10% of the rate of the complete reaction.
The IC50 values (inhibitor concentration producing 50% inhibition of the reaction under the standard assay conditions described) were computed by linearregression analysis of the linear portion of the dose-response curve for each inhibitor.

[2] = target: T2, Rat L-Hexonate Dehydrogenase (L-HDH) (Rattus norvegicus, UniProt P51635); assay: In vitro inhibition of L-hexonate dehydrogenase (rat kidney supernatant fraction); type: biochemical; conditions: ± SEM, n = 2-3, pH 7.5, room temperature
T2 construct: rat kidney supernatant fraction; from tissue; host or cells: rat kidney, supernatant fraction
T2 sequence (P51635 1-325): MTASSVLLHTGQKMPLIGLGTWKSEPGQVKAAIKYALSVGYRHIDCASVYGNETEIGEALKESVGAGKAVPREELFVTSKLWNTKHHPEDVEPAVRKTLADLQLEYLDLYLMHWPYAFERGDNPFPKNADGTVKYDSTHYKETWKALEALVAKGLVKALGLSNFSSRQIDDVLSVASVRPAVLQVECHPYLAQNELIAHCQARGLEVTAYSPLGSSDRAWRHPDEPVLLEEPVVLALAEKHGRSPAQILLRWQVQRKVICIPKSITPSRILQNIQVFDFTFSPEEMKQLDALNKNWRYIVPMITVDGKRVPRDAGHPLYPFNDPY
From the text: as §1
as §2, with “The assay for L-hexonate dehydrogenase consisted of the following components: 50 mmol/L potassium phosphate buffer (pH 7.5), 20 mmol/L L-gulonate, 25 μmol/L NADP+, and rat kidney supernatant fraction (50-100 µg total protein) in a total volume of 1.0 mL.” left out, “Reactions were carried out at room temperature; blank rates with one component of the reaction omitted were typically less than 10% of the rate of the complete reaction.” left out

[3] = Plasma pharmacokinetics in rats following a 2 mg/kg intravenous bolus injection; type: in vivo, male Sprague-Dawley rats; conditions: 2 mg/kg i.v. bolus; for AUC(0-inf): linear trapezoidal summation with extrapolation to infinity; for clearance: read-out: CLT (total plasma clearance) (converted); for half-life / k el: 2 mg/kg; for concentration at 1 h / concentration at 4 h / concentration at 8 h / concentration at 24 h / concentration at 31 h / concentration at 48 h / concentration at 72 h / concentration at 96 h / concentration at 120 h / concentration at 144 h / concentration at 168 h / concentration at 216 h: Mean ± SD (N = 3); for concentration at 96 h / concentration at 120 h / concentration at 144 h / concentration at 168 h / concentration at 216 h: ND = Not Detected (lower limit of detection 2 ng/mL)
Protocol: The pharmacokinetic properties of A(±) of Example 1 were compared with those of each enantiomer, A(+) and A(-) of Example 1. The comparison was made in rats following an intravenous bolus injection.
The test articles were formulated in a 0.1N sodium carbonate solution to yield a 2 mg/mL solution. A total of 126 male Sprague-Dawley rats weighing 200-300 g were divided into three groups of 42 rats each. The animals were offered food and water ad libitum except fasting overnight prior to and for four hours after dosing. Rats in each group received a single 2 mg/kg intravenous dose of A(+) or A(-) or A(±) via the tail vein. At the following times postdose, three rats from each group were anesthetized by carbon dioxide inhalation and plasma samples were collected from each animal: 0, 1, 4, 8, 24, 31, 48, 72, 96, 120, 144, 168, 216, and 336 hours. Plasma concentrations of each drug were determined by gas chromatographic-electron capture (GC-EC) methods known to those skilled in the art, with a lower limit of detection of 2 ng/mL. See, e.g., Park, Y. H., et al., Xenobiotica 22:543-550 (1992). The values of the elimination rate constants, α,β and γ, were obtained by linear regression analysis of the log-linear portion of the plasma concentration-time curve. These constants correspond to the initial distribution, disposition and terminal elimination phases, respectively. The α and β values were obtained by the method of residuals. The corresponding half-lives (t1/2α, t1/2β and t1/2γ) were calculated by dividing 0.693 by each respective parameter. The area under the plasma concentration versus time curve from 0 to infinity (AUC..infin.) was calculated by linear trapezoidal summation with extrapolation to infinity. Total plasma clearance CLT was calculated as dose divided by AUC..infin.. The area under the first moment curve (AUMC) is the area under the curve observed for the product of time and concentration, versus time. Apparent volume of distribution at steady state (Vss) was calculated by the product of dose and AUMC, divided by (AUC..infin.)^2.

[4] = system: sorbitol in three tissues (lens, sciatic nerve and retina); assay: In vivo inhibition of sorbitol in three tissues (lens, sciatic nerve and retina) of severely diabetic rats, dosed orally; conditions: for ED50: Rattus norvegicus, 192 h, once a day for eight days
Protocol: To compare the in vivo efficacy of A(±) (from Example 1) and its enantiomers, A(+) and A(-), the ED50 values (the effective dose, in mg/kg/day, to achieve 50% inhibition) for inhibition of sorbitol in three tissues (lens, sciatic nerve and retina) of severely diabetic rats, dosed orally for eight days, once a day, were recorded.

[5] = system: sorbitol in three tissues (lens, sciatic nerve and retina); assay: as above; conditions: Rattus norvegicus, 192 h, oral, once a day for eight days, footnote 1: ED60, read-out: ED50, Lens (footnote: for lens, ED60 value is given)
[6] = rat, plasma, iv, ND = Not Detected, read-out: t1/2γ (terminal elimination phase half-life) (converted)
[7] = rat, plasma, iv, ND = Not Detected, read-out: γ (elimination rate constant, terminal elimination phase) (converted)
[8] = rat, plasma, iv, read-out: t1/2α (initial distribution phase half-life) (converted)
[9] = rat, plasma, iv, read-out: t1/2β (disposition phase half-life) (converted)
[10] = rat, plasma, iv, read-out: α (elimination rate constant, initial distribution phase) (converted)
[11] = rat, plasma, iv, read-out: β (elimination rate constant, disposition phase) (converted)
[12] = retina sorbitol, oral, A(-) value is (est.), read-out: ED50, Retina
[13] = sciatic nerve sorbitol, oral, read-out: ED50, S. Nerve

Row | Structure (SMILES) | IC50 [1] [µM] | IC50 [2] [µM] | AUMC [3] [μg/hour^2/mL] | elimination profile (in words) [3] | AUC(0-inf) ([3]; rat, plasma, iv) [ng·h/mL] | clearance ([3]; rat, plasma, iv) [mL/min/kg] | half-life [3, 8] [h] | half-life [3, 9] [h] | k el [3, 10] [s⁻¹] | k el [3, 11] [s⁻¹] | concentration at 1 h ([3]; rat, plasma, iv) [ng/mL] | concentration at 4 h ([3]; rat, plasma, iv) [ng/mL] | concentration at 8 h ([3]; rat, plasma, iv) [ng/mL] | concentration at 24 h ([3]; rat, plasma, iv) [ng/mL] | concentration at 31 h ([3]; rat, plasma, iv) [ng/mL] | concentration at 48 h ([3]; rat, plasma, iv) [ng/mL] | concentration at 72 h ([3]; rat, plasma, iv) [ng/mL] | ED50 [4, 12] [mg/kg] | ED50 [4, 13] [mg/kg] | ED60 [5] [mg/kg/day] | further results
1 | COc1cc(F)cc2c1-c1ccc(F)cc1C21NC(=O)NC1=O (racemic) [A(±), 2,7-difluoro-4-methoxyspiro[9H-fluorene-9,4'-imidazolidine]-2',5'-dione] | 5.7 ± 1.7 | 2.2 ± 0.9 | 854 | kinetic profile similar to that of A(+) with the presence of a persistent elimination phase | 60400 | 0.552 | 5.8 | 8 | 3.28e-05 | 2.36e-05 | 5080 ± 441 | 3590 ± 441 | 2420 ± 5440 | 352 ± 34 | 194 ± 22 | 108 ± 27 | 3 ± 4 | 0.26 | 0.12 | 0.28 | Vd ([3]; rat, plasma, iv, read-out: Vss (apparent volume of distribution at steady state)): 0.47 L/kg; half-life [3, 6]: 40.7 h; k el [3, 7]: 4.72e-06 s⁻¹; concentration at 96 h ([3]; rat, plasma, iv): 17 ± 4 ng/mL; concentration at 120 h ([3]; rat, plasma, iv): 13 ± 3 ng/mL; concentration at 144 h ([3]; rat, plasma, iv): 11 ± 2 ng/mL; concentration at 168 h ([3]; rat, plasma, iv): 5 ± 2 ng/mL; concentration at 216 h ([3]; rat, plasma, iv): 2 ± 1 ng/mL; activity relative to A(+) ([4]; sorbitol inhibition in vivo, diabetic rats): about 50%
2 | COc1cc(F)cc2c1-c1ccc(F)cc1[C@]21NC(=O)NC1=O [A(-), 2,7-difluoro-4-methoxyspiro[9H-fluorene-9,4'-imidazolidine]-2',5'-dione] | 5.9 ± 0.3 | 3 ± 0.4 | 402 | lacks a slow terminal elimination phase | 63000 | 0.528 | 4.3 | 8.5 | 4.53e-05 | 2.25e-05 | 7330 ± 220 | 3800 ± 975 | 2780 ± 449 | 140 ± 17 | 127 ± 36 | 23 ± 8 | 4 ± 3 | 2 to 3 | 1 | 1.52 | difference in activity in vitro between A(+) and A(-) [1]: no significant difference in activity in vitro; volume of distribution (in words) ([3]; compared with A(+)): significantly lower volume of distribution; factor by which less active than A(+) ([4]; in all tissues (lens, sciatic nerve, retina)): ≥ 10; maximum inhibition achieved at the highest dose ([4]; lens sorbitol, highest dose (1.5 mg/kg/day), oral, eight days): 40%
3 | COc1cc(F)cc2c1-c1ccc(F)cc1[C@@]21NC(=O)NC1=O [A(+), 2,7-difluoro-4-methoxyspiro[9H-fluorene-9,4'-imidazolidine]-2',5'-dione] | 5.5 ± 0.2 | 3 ± 0.4 | 965 | triexponential elimination profile with an initial distribution phase, a disposition phase due to metabolism, and a slow terminal elimination phase | 54400 | 0.612 | 3.1 | 14.5 | 6.17e-05 | 1.33e-05 | 2970 ± 679 | 2360 ± 456 | 2360 ± 281 | 486 ± 170 | 382 ± 49 | 162 ± 32 | 67 ± 15 | 0.15 | 0.08 | 0.15 | difference in activity in vitro between A(+) and A(-) [1]: no significant difference in activity in vitro; half-life [3, 6]: 37.4 h; k el [3, 7]: 5e-06 s⁻¹; concentration at 96 h ([3]; rat, plasma, iv): 33 ± 11 ng/mL; concentration at 120 h ([3]; rat, plasma, iv): 11 ± 4 ng/mL; concentration at 144 h ([3]; rat, plasma, iv): 9 ± 1 ng/mL; concentration at 168 h ([3]; rat, plasma, iv): 5 ± 3 ng/mL; concentration at 216 h ([3]; rat, plasma, iv): 2 ± 1 ng/mL
